Literature values in patent US20240189256A1, “COMPOSITIONS FOR PRE-SURGICAL NUTRITIONAL SUPPLEMENTS” (TM Nutrition LLC, priority 2022, published 2024).

Experiments:
[1] = given orally
[2] = unless sepsis is present

In the case of `N=C(N)NCCC[C@H](N)C(=O)O` [arginine], the half-life [1] is given as 1.5 to 2 h and the “supplementation safe and well tolerated up to” value [2] is given as “up to 10 g/day”.
